The source of these data is patent US20100021434A1, “Isolated Oligodendrocyte-Like Cells and Populations Comprising Same for the Treatment of CNS Diseases” (Ramot At Tel Aviv University Ltd., priority 2005, published 2010).

Holding throughout (assay type): cell-based
Test [1] concerns mouse MSCs. The experiment in a line: Oligodendrocyte-like differentiation of mouse MSCs, immunostaining (A2B5, O4, MBP). The conditions noted are these: for expression of the oligodendrocyte progenitor marker A2B5 (FIGS. 4A-C): MSCs of C57-EGFP mice, NT-3 50 ng/ml, IL-1β 20 ng/ml; for Fraction of A2B5+ cells: mouse MSCs, cytokines added to growth medium. On the procedure:
(§1) Oligodendrocyte-like Differentiation of mouse MSCs: 3.2*10^3 mMSCs per well from transgenic EGFP+ C57/b1 mice (that have constitutive expression of EGFP in all their cells), were cultured in growth medium (15% FCS, 5% HS, 2 mM L-glutamine, 0.001% β-mercaptoethanol, 10 ng/ml epidermal growth factor, 100 U/ml Penicillin, 100 μg/ml Streptomycin and 12.5 U/ml Nystatin in α-DMEM), and then transferred to mediums containing different cytokines, hormones and growth factors (See table 2 hereinbelow) that play roles in oligodendrocyte lineage differentiation process, to examine the effects of those substances on the cells. The cells were incubated in the differentiation mediums for 48 hours or 6 days, and then were fixed in 4% PFA for 5 minutes in RT and 20 minutes in 4° C. and photographed for morphological changes.
The fixed cells were then blocked in 5% goat serum (GS) stained with mouse anti-A2B5 antibodies (1:200; Chemicon) overnight, 4° C., washed twice in 5% GS, and appropriate goat anti mouse second Cy3 antibody (1:500; Jackson labs) for one hour, RT, in the dark. The cells were then examined for fluorescence and photographed by fluorescence Olympus IX70-S8F2 microscope with fluorescent light source and a U-MNU filter cube (Olympus). In all immuno-staining experiments, a sample was also stained with IInd antibodies only, as control, to detect any non-specific staining.

Test [2] deals with mouse MSCs. The experiment in a line: Oligodendrocyte-like differentiation of mouse MSCs, morphology. The conditions noted are these: MSCs of C57-EGFP transgenic mice, growth medium plus cytokines, 6 days. On the procedure:
as §1

For test [3], the system named is mouse MSCs. The experiment in a line: FACS analysis of differentiated mouse cells (A2B5, O4). As to conditions: EGFP mMSCs, IL-1β 20 ng/ml in growth medium, 4 days. The procedure:
FIGS. 5A-D are graphs and tables illustrating an analysis of mouse MSCs following differentiation protocol in vitro. MSCs from the bone marrow of transgenic EGFP-expressing transgenic mice (A) were cultured in differentiation medium composed of standard growth medium supplemented by IL-1β (20 ng/ml), or in standard growth medium only (control; B) for 4 days. The cells were then stained by antibodies against oligodendrocyte progenitor marker A2B5, and analyzed by flow cytometry (A2B5 staining seen as black lines). Nonspecific staining by second antibody only was used as control (nonspecific staining seen as red lines), and quantitative measurements were made from the cross points of the two lines. Quantitative measurements (D) were made either on the total population (first row), or on the population with very small-sized events omitted (see gated area in A; second row in D).
FACS analysis of differentiated mouse cells: MSCs were harvested from the tissue culture flasks following […] in differentiation medium (See Table 3, in the Results, #4), alongside undifferentiated MSCs, and centrifuged at 1000×rpm for 10 minutes at room temperature. […] After two washes in flow buffer, the cells were resuspended in 0.5 ml PBS and were studied by a fluorescence activated cell sorter (FACS) Calibur™ using an argon ion laser, adjusted to an excitation wavelength of 488 nm (Becton Dickinson). […]
Background: In flow cytometry, cells or beads pass a laser one at a time.

In the case of “Interleukin-1β: interleukin 1 beta, cytokine from PeproTech added to growth medium”, in the test on mouse MSCs [1] (6 days), the “expression of the oligodendrocyte progenitor marker A2B5 (FIGS. 4A-C)” value is “acquiring expression” and the “Fraction of A2B5+ cells” value turned out to be 3.8%. The “Fraction of A2B5+ cells” value in the test on mouse MSCs [1] (48 hours) was determined as 1%. The “cell morphology (FIGS. 3A-F)” value in the test with mouse MSCs [2] was “did not alter drastically”. For the same molecule, the “percentage A2B5+ cells (FACS analysis)” value in the test on mouse MSCs [3] is “changes. Low”.
As for `CC1=C(/C=C/C(C)=C/C=C/C(C)=C/C(=O)O)C(C)(C)CCC1` [Retinoic acid, reference compound], in the test on mouse MSCs [1] (48 hours), the “Fraction of A2B5+ cells” value was found to be 0%.

B1: Neurotrophin-3: neurotrophin 3, human polypeptide or mammalian homologue, from PeproTech (protein, UniProt P20783 139-257, looked up)
Neurotrophin-3: YAEHKSHRGEYSVCDSESLWVTDKSSAIDIRGHQVTVLGEIKTGNSPVKQYFYETRCKEARPVKNGCRGIDDKHWNSQCKTSQTYVRALTSENNKLVGWRWIRIDTSCVCALSRKIGRT
modifications: Neurotrophin-3
notes: neurotrophin 3, human polypeptide or mammalian homologue, from PeproTech
As for B1, the “expression of the oligodendrocyte progenitor marker A2B5 (FIGS. 4A-C)” value in the test with mouse MSCs [1] (6 days) is “acquiring expression”. In addition, the “Fraction of A2B5+ cells” value with mouse MSCs [1] (48 hours) amounted to 1.9%; in the test on mouse MSCs [1] (6 days) it was 2.7%. Also, in the test with mouse MSCs [2], the “cell morphology (FIGS. 3A-F)” value was “did not alter drastically”.
